According to patent US20190274308A1, “METHOD FOR PROTECTING PLANTS FROM PESTS USING A PESTICIDE COMPOSITION WITH ADJUSTABLE PERSISTENCE AND DEGRADABILITY” (Flechsig Patent Company LLC, priority 2016, published 2019):

Assay type: physicochemical
Description: A further characterizing parameter of the soil is the content of microorganisms, in particular bacteria, fungi and microfauna.
Tables 5 and 6 below indicate the degradation times of exemplary poly(alkyl)guanidines depending on various contents of microorganisms in the soil.
These determinations were obtained basically according to established methods, in particular as described in “Bodenbiologische Arbeitsmethoden”, 2nd revised and expanded edition, F. Schinner, E. Kandeler, R. Öhlinger, R. Margesin (eds.) (1993).
To determine the total bacterial count according to Trolldenier (1972), a soil suspension is applied onto a defined area of a slide and the dried soil film is stained with acridine orange. The bacterial count is determined in a plurality of counting fields under the fluorescence microscope and from this the total bacterial count of the soil sample is calculated.
The ergosterol of the soil fungi is saponified with KOH, extracted with n-hexane in the separating funnel, dried at 40° C. in the rotary evaporator and then dissolved in methanol. Detection is achieved by means of HPLC at 282 nm. The procedure is based on the method of Zelles et al. (1987) and was modified in a few points.
For the sake of simplicity calculation is performed using the dimensions of the dishes. At least 10 individuals per species should be measured. The resulting volume mean value can be equated numerically with the weight, as the specific mass of the microfauna is approximately 1 g cm^−3.

In order of rising “Difference days min/max degradation time, bact., fungi, microfauna” value:
1. poly(tetramethylene)guanidine [C4 PTMG]  22 days
2. poly(hexamethylene)guanidine [C6 PHMG]  30 days
3. poly(octamethylene)guanidine [C8 POMG]  36 days
